One assay has as its system IL-4. Put plainly: Cytokine assay: IL-4 release from PHA-L stimulated human PBMCs. It counts as cell-based. The following applies: read-out: IL4 IC50. The procedure, abridged: (§1)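 PBMC thaw, ~250k cells/well; cpd pre-incubation ~10 min RT; PHA-L 3.5 μg/mL final; 48 h, 37° C, 5% CO2; supernatant HTRF; IC50 by 4-parameter logistic.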
The subject of another assay is IL-13. The assay can be described thus: Cytokine assay: IL-13 release from PHA-L stimulated human PBMCs. To be noted: read-out: IL13 IC50. The class given is cell-based. The procedure, abridged:
as §1

Assay [1] concerns the target PDE4B (aa 152-484, Uniprot ID Q07343) (Homo sapiens (Human), UniProt Q07343). Put plainly: PDE4 SPA assay (scintillation proximity assay). It counts as biochemical. To be noted: read-out: PDE4B2 IC50. The method, then: Phosphodiesterase (PDE) activity is determined by measuring the effect of a test agent on the activity of the PDE4B enzyme in a scintillation proximity assay (SPA). At the time of assay, approximately 30 μL of PDE4B (aa 152-484, Uniprot ID Q07343) in 50 mM Tris pH 7.5, 1.3 mM MgC2, 0.004% Brij 35 is added to a 384 well white clear bottom polystyrene plate (Corning) containing 1 μL of varying concentrations of test compound. After −10 minutes at room temperature (RT; 21° C.), the assay is initiated by the addition of 20 μL of a mixture of ^3H-labeled (adenosine 3′, 5′-cyclic phosphate, ammonium salt, [2,8-^3H]; Perkin Elmer) and unlabeled cAMP. The final assay conditions are approximately 81.6 pM PDE4B in 50 mM Tris pH 7.5, 1.3 mM MgCl2, 0.004% Brij 35, 1 μM ^3H-labeled/unlabeled cAMP (1425 dpm/pmol) and the indicated final concentration of test compound (approximately 10 μM to […] by 4-fold dilution). The final concentration of DMSO in the assay is approximately 2.0%. After 30 minutes at RT, the assay is terminated by the addition of approximately 20 μL of an aqueous solution of PDE YSI SPA beads (8 mg/mL in water; Perkin Elmer). The beads are allowed to settle for at least 2 hours and the plate is then counted on a MicroBeta2 (Perkin Elmer). The concentrations and resulting effect values for the tested compound are plotted and the concentration of compound required for 50% effect (IC50) is determined with a four-parameter logistic dose response equation (E-WorkBook, ID Business Solutions Ltd.) and shown in Table 17.

The next assay deals with IFNγ. The assay can be described thus: Cytokine assay: IFNγ release from PHA-L stimulated human PBMCs. It counts as cell-based. In outline: as §1

Structures are written as SMILES. Like-named read-outs stand apart in the source and are kept apart here.

PDE4B (aa 152-484, Uniprot ID Q07343), sequence (Q07343 324-656): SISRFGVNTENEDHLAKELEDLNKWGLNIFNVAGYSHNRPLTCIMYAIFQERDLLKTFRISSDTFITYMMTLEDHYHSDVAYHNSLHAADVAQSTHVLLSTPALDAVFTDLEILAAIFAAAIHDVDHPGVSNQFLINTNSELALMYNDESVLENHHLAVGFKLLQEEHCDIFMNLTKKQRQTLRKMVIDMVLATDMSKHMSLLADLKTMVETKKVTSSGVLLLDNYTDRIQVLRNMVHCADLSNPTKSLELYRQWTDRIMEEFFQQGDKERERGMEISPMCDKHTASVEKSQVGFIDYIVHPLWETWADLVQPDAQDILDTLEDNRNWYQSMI

Consider `CCOc1cc(-c2cncc(C3COB(O)C3)c2C(F)F)ccc1OC` (single isomer, unassigned) [Example 139, 4-(4-(difluoromethyl)-5-(3-ethoxy-4-methoxyphenyl)pyridin-3-yl)-1,2-oxaborolan-2-ol], for which the IC50 (in general, the midpoint of a concentration-inhibition curve) worked out at 0.78 nM in the assay with IL-4, 788 nM in the assay on IL-13, 0.25 nM in assay [1] and 0.4 nM with IFNγ.
For `CCOc1cc(-c2cncc(C3COB(O)C3)c2C(F)F)ccc1OC` (single isomer, unassigned) [Example 140, 4-(4-(difluoromethyl)-5-(3-ethoxy-4-methoxyphenyl)pyridin-3-yl)-1,2-oxaborolan-2-ol], in that order: 3.47 nM, 3450 nM, 2.7 nM and 3.2 nM.
As for `CCOc1cc(-c2cncc(C3COB(O)C3)c2C)c(F)cc1OC` (single isomer, unassigned) [Example 142, 4-(5-(5-ethoxy-2-fluoro-4-methoxyphenyl)-4-methylpyridin-3-yl)-1,2-oxaborolan-2-ol], the concentration for half-maximal inhibition (IC50) was found to be 4.5 nM in the assay with IL-4 (Homo sapiens, PBMC); 1040 nM in the assay on IL-13 (Homo sapiens, PBMC); 2.53 nM in assay [1]; 2.04 nM in the assay with IFNγ (Homo sapiens, PBMC).
Turning to `CCOc1cc(-c2cncc(C3COB(O)C3)c2C)c(F)cc1OC` (single isomer, unassigned) [Example 143, 4-(5-(5-ethoxy-2-fluoro-4-methoxyphenyl)-4-methylpyridin-3-yl)-1,2-oxaborolan-2-ol], the IC50 with IL-4 worked out at 4.11 nM; in the assay on IL-13 it was 1160 nM; in assay [1], 2.71 nM; in the assay on IFNγ it was 3.68 nM.
Regarding `CCCOc1cccc(-c2cncc(C3COB(O)C3)c2)c1` (single isomer, unassigned) [Example 146, 4-(5-(3-propoxyphenyl)pyridin-3-yl)-1,2-oxaborolan-2-ol], the IC50 in the assay on IL-4 (Homo sapiens, PBMC) is 24.4 nM; in the assay on IL-13 (Homo sapiens, PBMC), 757 nM; in assay [1] it was 1.21 nM; with IFNγ (Homo sapiens, PBMC), 23.8 nM.
With `CCOc1c(OC)ccc(-c2cncc(C3COB(O)C3)c2)c1C(F)F` (single isomer, unassigned; (-)) [Example 10, (−) 4-(5-(2-(difluoromethyl)-3-ethoxy-4-methoxyphenyl)pyridin-3-yl)-1,2-oxaborolan-2-ol], the IC50 with IL-4 was determined as 2.39 nM; in the assay on IL-13, 438 nM; in assay [1] it was 6.92 nM; with IFNγ, 1.62 nM.
For `CCOc1ccc(-c2cncc(C3COB(O)C3)c2)cc1OC` (single isomer, unassigned; enantiomer2) [Example 188, 4-(5-(4-ethoxy-3-methoxyphenyl)pyridin-3-yl)-1,2-oxaborolan-2-ol, enantiomer2], the IC50 with IL-4 (Homo sapiens, PBMC) is 135 nM; in the assay with IL-13 (Homo sapiens, PBMC), 1530 nM; in assay [1], 12.5 nM; in the assay with IFNγ (Homo sapiens, PBMC) it was 12.2 nM.
As for `CCOc1c(OC)cc(F)c(-c2cncc(C3COB(O)C3)c2)c1F` (single isomer, unassigned; enantiomer 1) [Example 164, (−) 4-(5-(3-ethoxy-2,6-difluoro-4-methoxyphenyl)pyridin-3-yl)-1,2-oxaborolan-2-ol, enantiomer 1], the IC50 was found to be 41.1 nM with IL-4 (Homo sapiens, PBMC); 986 nM in the assay with IL-13 (Homo sapiens, PBMC); 5.58 nM in assay [1]; 7.87 nM with IFNγ (Homo sapiens, PBMC).
The corresponding values for `CCCOc1c(OC)ccc(-c2cncc(C3COB(O)C3)c2)c1OC` (single isomer, unassigned; enantiomer 1) [Example 168, (−) 4-(5-(2,4-dimethoxy-3-propoxphenyl)pyridin-3-yl)-1,2-oxaborolan-2-ol, enantiomer 1] are 1.17 nM, 1260 nM, 0.88 nM and 0.64 nM.
For `COc1ccc(-c2cncc(C3COB(O)C3)c2)cc1OC1CCSCC1` (single isomer, unassigned; enantiomer 1) [Example 170, 4-(5-(4-methoxy-3-((tetrahydro-2H-thiopyran-4-yl)oxy)phenyl)pyridin-3-yl)-1,2-oxaborolan-2-ol, enantiomer 1], in that order: 48.5 nM, 1070 nM, 3.78 nM and 2.83 nM.
Consider `CCCOc1cc(-c2cncc(C3COB(O)C3)c2)ncc1OC` (single isomer, unassigned; enantiomer 1) [Example 179, 4-(5-methoxy-4-propoxy-[2,3′-bipyridin]-5-yl)-1,2-oxaborolan-2-ol, enantiomer 1], for which the IC50 in the assay with IL-4 (Homo sapiens, PBMC) is 0.72 nM; in the assay with IL-13 (Homo sapiens, PBMC) it was 2730 nM; in assay [1] it was 0.98 nM; in the assay on IFNγ (Homo sapiens, PBMC), 0.74 nM.
The corresponding values for `CCCOc1cc(-c2cc(C3COB(O)C3)cc(CO)n2)ccc1OC` (single isomer, unassigned; enantiomer 1) [Example 180, 4-(2-(hydroxymethyl)-6-(4-methoxy-3-propoxyphenyl)pyridin-4-yl)-1,2-oxaborolan-2-ol, enantiomer 1] are 6.33 nM, 1290 nM, 3.01 nM and 6.65 nM.
Turning to `COc1ccc(-c2cncc(C3COB(O)C3)c2)cc1OC1CC1` (single isomer, unassigned; enantiomer 1) [Example 193, 4-(5-(3-cyclopropoxy-4-methoxyphenyl)pyridin-3-yl)-1,2-oxaborolan-2-ol, enantiomer 1], the IC50 with IL-4 was determined as 73.1 nM; in the assay with IL-13, 1530 nM; in assay [1] it was 0.63 nM; in the assay on IFNγ, 2.16 nM.
As to `CCOc1cc(-c2nc(C3COB(O)C3)cs2)ccc1OC` (single isomer, unassigned; enantiomer 1) [Example 194, (−) 4-(2-(3-ethoxy-4-methoxyphenyl)thiazol-4-yl)-1,2-oxaborolan-2-ol, enantiomer 1], the IC50 in the assay with IL-4 (Homo sapiens, PBMC) is 2.85 nM; with IL-13 (Homo sapiens, PBMC) it was 1540 nM; in assay [1], 3.63 nM; in the assay with IFNγ (Homo sapiens, PBMC), 14.7 nM.
The corresponding values for `CCCOc1cc(-c2nc(OCCO)cc(C3COB(O)C3)n2)ccc1OC` (single isomer, unassigned; enantiomer 1) [Example 196, (−) 4-(6-(2-hydroxyethoxy)-2-(4-methoxy-3-propoxyphenyl)pyrimidin-4-yl)-1,2-oxaborolan-2-ol, enantiomer 1] are 0.29 nM, 1540 nM, 0.34 nM and 0.81 nM.
For `CCOc1cc(-c2cccc(C3COB(O)C3)n2)ccc1SC` (single isomer, unassigned; enantiomer 1) [Example 204, 4-(6-(3-ethoxy-4-(methylthio)phenyl)pyridin-2-yl)-1,2-oxaborolan-2-ol, enantiomer 1], in that order: 22.7 nM, 1710 nM, 6.07 nM and 21.8 nM.
Consider `CCOc1cc(-c2c(C)ncc(C3COB(O)C3)c2C)ccc1OC` (single isomer, unassigned; enantiomer 1) [Example 205, (+) 4-(5-(3-ethoxy-4-methoxyphenyl)-4,6-dimethylpyridin-3-yl)-1,2-oxaborolan-2-ol, enantiomer 1], for which the IC50 with IL-4 (Homo sapiens, PBMC) is 1.06 nM; in the assay on IL-13 (Homo sapiens, PBMC) it was 1770 nM; in assay [1], 0.52 nM; with IFNγ (Homo sapiens, PBMC) it was 1.09 nM.
The corresponding values for `CCCOc1c(OC)ccc(-c2cncc(C3COB(O)C3)n2)c1F` (single isomer, unassigned; enantiomer 1) [Example 216, 4-(6-(2-fluoro-4-methoxy-3-propoxyphenyl)pyrazin-2-yl)-1,2-oxaborolan-2-ol, enantiomer 1] are 19.6 nM, 2860 nM, 4.05 nM and 1.94 nM.
For `CCCOc1cc(-c2cc(C3COB(O)C3)cnc2C)cnc1OC` (single isomer, unassigned; enantiomer 1) [Example 219, (−) 4-(6′-methoxy-2-methyl-5′-propoxy-[3,3′-bipyridin]-5-yl)-1,2-oxaborolan-2-ol, enantiomer 1], in that order: 4.1 nM, 2130 nM, 0.82 nM and 1.67 nM.
The corresponding values for `CCOc1cc(C2COB(O)C2)nc(-c2ccc(OC)c(OCC)c2)n1` (single isomer, unassigned; enantiomer 1) [Example 223, 4-(6-ethoxy-2-(3-ethoxy-4-methoxyphenyl)pyrimidin-4-yl)-1,2-oxaborolan-2-ol, enantiomer 1] are 30.9 nM, 2690 nM, 6.67 nM and 22.5 nM.
